Measured values as given in US11046709B2, “Fused 1,4-diazepines as BET bromodomain inhibitors” (THE REGENTS OF THE UNIVERSITY OF MICHIGAN, priority 2017, dated 2021).
Like-named read-outs stand apart in the source and are kept apart here.

Key:
MDA-MB-231 = test: Cell growth inhibition, 4-day proliferation assay, MDA-MB-231; assay type: cell-based; conditions: Homo sapiens
Procedure: (§1) The effect of representative Compounds of the Disclosure on cell viability was determined in a 4-day proliferation assay. Cells were maintained in the appropriate culture medium with 100/0 FBS at 37° C. and an atmosphere of 5% CO2. All the cell lines were used within three months of thawing fresh vials.
(§2) In general, cells were seeded in 96-well flat bottom (Corning COSTAR, Corning, N.Y., cat #3595) or white opaque cell culture plates (BD Falcon, cat #353296) at a density of 3,000-10,000 cells/well in 75 μl of culture medium. Compounds were serially diluted in the appropriate medium, and 75 μl of the diluted compounds were added to the appropriate wells of the cell plate. After the addition of compounds, the cells were incubated at 37° C. in an atmosphere of 5% CO2 for 4 days. Cell viability was determined using the CellTiter-Glo® Luminescent Cell Viability Assay Kit (Promega, Madison, Wis.) for leukemia cells and WST (2-(2-methoxy-4-nitrophenyl)-3-(4-nitrophenyl)-5-(2,4-disulfophenyl)-2H-tetrazolium, monosodium salt) Cell Counting-8 Kit (Dojindo Molecular Technologies, Inc., Rockville, Md.) for adherent cells according to the manufacturers' instructions.
(§3) For WST assay (adherent cells), WST-8 reagent was added to each well at a final concentration of 10% (v/v), and then the plates were incubated at 37° C. for 1-2 hours for color development. The absorbance was measured at 450 nm using a SPECTRAmax PLUS plate reader (Molecular Devices, Sunnyvale, Calif.). The readings were normalized to the DMSO-treated cells and the half maximal inhibitory concentration (IC50) was calculated by nonlinear regression (four parameters sigmoid fitted with variable slope, least squares fit, and no constraint) analysis using the GraphPad Prism 5 software (GraphPad Software, La Jolla, Calif.).
(§4) For CellTiter-Glo assay (suspension cells), 100 μl of CellTiter-Glo® Reagent was added to each well, and then the plates were incubated at room temperature for 10-20 minutes. The luminescent signal was measured using a Tecan Infinite M1000 multimode microplate reader (Tecan, Morrisville, N.C.). The readings were normalized to the DMSO-treated cells and the IC50 was calculated by nonlinear regression (four parameters sigmoid fitted with variable slope, least squares fit, and no constraint) analysis using the GraphPad Prism 5 software. See US 2014/0256706.
(§5) For a number of representative compounds in Table 5, their IC50 values in cell growth inhibition activity in the RS4;11 and MOLM-13 human leukemia cell lines and the MDA-MB-231 breast cancer cell line were evaluated using the WST-8 assay described in EXAMPLE 7, with the data shown in Table 7.

MOLM-13 = test: Cell growth inhibition, 4-day proliferation assay, MOLM-13; assay type: cell-based; conditions: Homo sapiens, MOLM-13, WST-8 assay, Table 7; read-out: Cell growth inhibition (IC50 (nM)) MOLM-13
Procedure: as §1, §2, §3, §4, §5

[1] = MDA-MB-231, WST-8 assay, Table 7, read-out: Cell growth inhibition (IC50 (nM)) MDA-MB-231

SMILES	IC50 (MDA-MB-231; [1])	IC50 (MDA-MB-231; MDA-MB-231, read-out: Cell growth inhibition (IC50 (nM)) MDA-MB-231)	IC50 (MOLM-13)
Cc1c(C#Cc2cnn(CCCC(=O)O)c2)sc2c1C(c1ccc(Cl)cc1)=N[C@@H](C)c1nnc(C)n1-2 [Compound 101, (S)-4-(4-((4-(4-chlorophenyl)-3,6,9-trimethyl-6H-thieno[3,2-f][1,2,4]triazolo[4,3-a][1,4]diazepin-2-yl)ethynyl)-1H-pyrazol-1-yl)butanoic acid]	1030 ± 700 nM		
Cc1c(C#Cc2cnn(CCC(=O)O)c2)sc2c1C(c1ccc(Cl)cc1)=N[C@@H](C)c1nnc(C)n1-2 [Compound 102, (S)-3-(4-((4-(4-chlorophenyl)-3,6,9-trimethyl-6H-thieno[3,2-f][1,2,4]triazolo[4,3-a][1,4]diazepin-2-yl)ethynyl)-1H-pyrazol-1-yl)propanoic acid]		3000 ± 300 nM	
Cc1c(C#Cc2cccnc2)sc2c1C(c1ccc(Cl)cc1)=N[C@@H](CC(C)C)c1nnc(C)n1-2 [Compound 106, (S)-4-(4-chlorophenyl)-6-isobutyl-3,9-dimethyl-2-(pyridin-3-ylethynyl)-6H-thieno[3,2-f][1,2,4]triazolo[4,3-a][1,4]diazepine]	670 ± 100 nM		393 nM
Cc1c(C#Cc2ccc(N)nc2)sc2c1C(c1ccc(Cl)cc1)=N[C@@H](CC(C)C)c1nnc(C)n1-2 [Compound 107, (S)-5-((4-(4-chlorophenyl)-6-isobutyl-3,9-dimethyl-6H-thieno[3,2-f][1,2,4]triazolo[4,3-a][1,4]diazepin-2-yl)ethynyl)pyridin-2-amine]	320 ± 90 nM		363 nM
Cc1c(C#Cc2cnn(C)c2)sc2c1C(c1ccc(Cl)cc1)=N[C@@H](CC(C)C)c1nnc(C)n1-2 [Compound 108, (S)-4-(4-chlorophenyl)-6-isobutyl-3,9-dimethyl-2-((1-methyl-1H-pyrazol-4-yl)ethynyl)-6H-thieno[3,2-f][1,2,4]triazolo[4,3-a][1,4]diazepine]	200 ± 30 nM		232 nM
Cc1c(C#Cc2ccccn2)sc2c1C(c1ccc(Cl)cc1)=N[C@@H](CC(=O)NC1CCOCC1)c1nnc(C)n1-2 [Compound 133, (S)-2-(4-(4-chlorophenyl)-3,9-dimethyl-2-(pyridin-2-ylethynyl)-6H-thieno[3,2-f][1,2,4]triazolo[4,3-a][1,4]diazepin-6-yl)-N-(tetrahydro-2H-pyran-4-yl)acetamide]	338 nM		8.4 nM
Cc1c(C#Cc2ccccn2)sc2c1C(c1ccc(Cl)cc1)=N[C@@H](CC(=O)N1CCC(C)(O)CC1)c1nnc(C)n1-2 [Compound 137, (S)-2-(4-(4-chlorophenyl)-3,9-dimethyl-2-(pyridin-2-ylethynyl)-6H-thieno[3,2-f][1,2,4]triazolo[4,3-a][1,4]diazepin-6-yl)-1-(4-hydroxy-4-methylpiperidin-1-yl)ethan-1-one]	> 10000 nM		43200 nM
Cc1c(C#Cc2ccccn2)sc2c1C(c1ccc(Cl)cc1)=N[C@@H](CC(=O)N1CC(C)(O)C1)c1nnc(C)n1-2 [Compound 138, (S)-2-(4-(4-chlorophenyl)-3,9-dimethyl-2-(pyridin-2-ylethynyl)-6H-thieno[3,2-f][1,2,4]triazolo[4,3-a][1,4]diazepin-6-yl)-1-(3-hydroxy-3-methylazetidin-1-yl)ethan-1-one]	211 nM		15 to 30 nM
Cc1nnc(C[C@@H]2N=C(c3ccc(Cl)cc3)c3c(sc(C#Cc4ncccc4F)c3C)-n3c(C)nnc32)o1 [Compound 139, (S)-2-((4-(4-chlorophenyl)-2-((3-fluoropyridin-2-yl)ethynyl)-3,9-dimethyl-6H-thieno[3,2-f][1,2,4]triazolo[4,3-a][1,4]diazepin-6-yl)methyl)-5-methyl-1,3,4-oxadiazole]	28.9 nM		4 to 10 nM
Cc1nnc(C[C@@H]2N=C(c3ccc(Cl)cc3)c3c(sc(C#Cc4ccc(F)cn4)c3C)-n3c(C)nnc32)o1 [Compound 140, (S)-2-((4-(4-chlorophenyl)-2-((5-fluoropyridin-2-yl)ethynyl)-3,9-dimethyl-6H-thieno[3,2-f][1,2,4]triazolo[4,3-a][1,4]diazepin-6-yl)methyl)-5-methyl-1,3,4-oxadiazole]	52.6 nM		11.3 nM
Cc1nnc(C[C@@H]2N=C(c3ccc(Cl)cc3)c3c(sc(C#Cc4cnn(C)c4)c3C)-n3c(C)nnc32)o1 [Compound 141, (S)-2-((4-(4-chlorophenyl)-3,9-dimethyl-2-((1-methyl-1H-pyrazol-4-yl)ethynyl)-6H-thieno[3,2-f][1,2,4]triazolo[4,3-a][1,4]diazepin-6-yl)methyl)-5-methyl-1,3,4-oxadiazole]	31.2 nM		1.7 nM
Cc1nnc(C[C@@H]2N=C(c3ccc(Cl)cc3)c3c(sc(C#CC4(O)COC4)c3C)-n3c(C)nnc32)o1 [Compound 142, (S)-3-((4-(4-chlorophenyl)-3,9-dimethyl-6-((5-methyl-1,3,4-oxadiazol-2-yl)methyl)-6H-thieno[3,2-f][1,2,4]triazolo[4,3-a][1,4]diazepin-2-yl)ethynyl)oxetan-3-ol]	785 nM		95.9 nM
Cc1nnc(C[C@@H]2N=C(c3ccc(Cl)cc3)c3c(sc(C#CC4CCCC4)c3C)-n3c(C)nnc32)o1 [Compound 146, (S)-2-((4-(4-chlorophenyl)-2-(cyclopentylethynyl)-3,9-dimethyl-6H-thieno[3,2-f][1,2,4]triazolo[4,3-a][1,4]diazepin-6-yl)methyl)-5-methyl-1,3,4-oxadiazole]	22.5 nM		17.4 nM
Cc1nnc(C[C@@H]2N=C(c3ccc(Cl)cc3)c3c(sc(C#CC(C)(C)C)c3C)-n3c(C)nnc32)o1 [Compound 147, (S)-2-((4-(4-chlorophenyl)-2-(3,3-dimethylbut-1-yn-1-yl)-3,9-dimethyl-6H-thieno[3,2-f][1,2,4]triazolo[4,3-a][1,4]diazepin-6-yl)methyl)-5-methyl-1,3,4-oxadiazole]	20.1 nM		7.4 nM
Cc1nnc(C[C@@H]2N=C(c3ccc(Cl)cc3)c3c(sc(C#CC(C)C)c3C)-n3c(C)nnc32)o1 [Compound 148, (S)-2-((4-(4-chlorophenyl)-3,9-dimethyl-2-(3-methylbut-1-yn-1-yl)-6H-thieno[3,2-f][1,2,4]triazolo[4,3-a][1,4]diazepin-6-yl)methyl)-5-methyl-1,3,4-oxadiazole]	7.7 nM		6 nM
Cc1c(C#Cc2cncn2C)sc2c1C(c1ccc(Cl)cc1)=N[C@@H](CC(=O)N1CCN(C)CC1)c1nnc(C)n1-2 [Compound 165, (S)-2-(4-(4-chlorophenyl)-3,9-dimethyl-2-((1-methyl-1H-imidazol-5-yl)ethynyl)-6H-thieno[3,2-f][1,2,4]triazolo[4,3-a][1,4]diazepin-6-yl)-1-(4-methylpiperazin-1-yl)ethan-1-one]			36.4 nM
Cc1c(C#Cc2ccccn2)sc2c1C(c1ccc(Cl)cc1)=N[C@@H](CC(=O)N1CC3(CNC3)C1)c1nnc(C)n1-2 [Compound 170, (S)-2-(4-(4-chlorophenyl)-3,9-dimethyl-2-(pyridin-2-ylethynyl)-6H-thieno[3,2-f][1,2,4]triazolo[4,3-a][1,4]diazepin-6-yl)-1-(2,6-diazaspiro[3.3]heptan-2-yl)ethan-1-one]			115 nM
Cc1c(C#Cc2ccccn2)sc2c1C(c1ccc(Cl)cc1)=N[C@@H](CC(=O)N1CCC(F)(F)C1)c1nnc(C)n1-2 [Compound 171, (S)-2-(4-(4-chlorophenyl)-3,9-dimethyl-2-(pyridin-2-ylethynyl)-6H-thieno[3,2-f][1,2,4]triazolo[4,3-a][1,4]diazepin-6-yl)-1-(3,3-difluoropyrrolidin-1-yl)ethan-1-one]			151 nM
Cc1c(C#Cc2ccccn2)sc2c1C(c1ccc(Cl)cc1)=N[C@@H](CC(=O)N1CCCC(F)(F)C1)c1nnc(C)n1-2 [Compound 172, (S)-2-(4-(4-chlorophenyl)-3,9-dimethyl-2-(pyridin-2-ylethynyl)-6H-thieno[3,2-f][1,2,4]triazolo[4,3-a][1,4]diazepin-6-yl)-1-(3,3-difluoropiperidin-1-yl)ethan-1-one]			71 nM
Cc1c(C#Cc2ccccn2)sc2c1C(c1ccc(Cl)cc1)=N[C@@H](CC(=O)N1CCC(F)CC1)c1nnc(C)n1-2 [Compound 173, (S)-2-(4-(4-chlorophenyl)-3,9-dimethyl-2-(pyridin-2-ylethynyl)-6H-thieno[3,2-f][1,2,4]triazolo[4,3-a][1,4]diazepin-6-yl)-1-(4-fluoropiperidin-1-yl)ethan-1-one]	9.67 nM		
